Laboratory results taken from US20070129385A1, “Amorphous valganciclovir hydrochloride” (priority 2003, published 2007).
Structures can show the parent of a compound that is named as a salt.

Tests used:
[1] = test system: human cytomegalovirus; details: in vitro and in vivo; cited from earlier work
[2] = administered orally; cited from earlier work
[3] = storage stability of the solid amorphous form; assay type: physicochemical
Text: Solid amorphous valganciclovir hydrochloride is provided herein. The amorphous valganciclovir hydrochloride can be produced with no detectable crystalline valganchloride hydrochloride present, based on XRD investigations having a limit of detection of 0.5%.
The mixture of amorphous valganciclovir hydrochloride containing some crystalline form is then substantially converted to an amorphous form by dissolving it in water (optionally containing an organic solvent) followed by spray-drying of the solution as described earlier. Crystalline formation at this stage can be inhibited by storage under nitrogen in the strict absence of atmosphere or other water. The amorphous material has been found stable for up to at least 3 months with proper storage.

| Compound | replication of human cytomegalovirus [1] | rate of absorption [2] | time for which the material was found stable ([3]; proper storage (under nitrogen, absence of water)) | stability on storage ([3]; stored under controlled humidity conditions) | stability profile compared with the crystalline form ([3]; versus existing crystalline form) |
| --- | --- | --- | --- | --- | --- |
| Nc1nc(O)c2ncn(COC(CO)CO)c2n1 [Ganciclovir] | inhibits replication of human cytomegalovirus in vitro and in vivo | very low rate of absorption |  |  |  |
| CC(C)[C@@H](N)C(=O)OCC(CO)OCn1cnc2c(O)nc(N)nc21 (stereo partly drawn) [Amorphous valganciclovir hydrochloride, L-valinate ester of 2-(2-amino-1,6-dihydro-6-oxo-purin-9-yl)-methoxy-3-hydroxy-1-propanyl hydrochloride salt] |  |  | at least 3 months | stable when stored under controlled humidity conditions | superior stability profile to the existing crystalline form |
